pIC50: −log10 of the molar value. Square brackets hold non-standard residues; d marks the D form. Peptide text beside a SMILES is read from it. Tyr(3-tBu) = CC(C)(C)c1cc(C[CH](N)C(=O)O)ccc1O; Phg = N[CH](C(=O)O)c1ccccc1

Test [1] has as its target T1, motilin receptor (Oryctolagus cuniculus, UniProt G1T803).
T1 construct: had the mucous membrane separated and homogenized in 50 mM Tris-HCl buffer to prepare a receptor sample; from tissue; host or cells: rabbit duodenum with the mucosa removed, homogenate
Nature of the test: Motilin receptor binding test. As to conditions: rabbit duodenum homogenate, 125I motilin 25 pM; concentration reducing specific binding by 50%. Here is the method: Motilin Receptor Binding Test
A motilin receptor binding test was conducted in the following manner [Bormans et al., Regul. Peptides, 15, 143 (1986)]. The duodenum was extracted from a slaughtered rabbit, had the mucous membrane separated and homogenized in 50 mM Tris-HCl buffer to prepare a receptor sample. The sample was incubated together with ^125 I motilin 25 pM and thereafter the radioactivity bound to the receptor was measured. Specific binding was defined as the difference between the radioactivity in the case of adding 1% DMSO in place of the compounds of the examples and that in the case of adding a great excess amount of motilin (10^-7 M). The activity of each compound was expressed by IC50 (in nM), as the concentration sufficient to reduce the specific binding by 50%.

Test [2] concerns motilin-induced contraction of a specimen of longitudinal muscle in the duodenum extracted from a rabbit. Nature of the test: Contraction suppressing test: action on motilin-induced contraction of duodenum longitudinal muscle specimen. As to conditions: rabbit duodenum specimen in organ bath, Krebs solution 28° C.; effect on dose-dependent contraction by motilin. It is filed as cell-based. As for the experimental part:
Action on the Contraction of a Specimen of Longitudinal Muscle in the Duodenum Extracted from a Rabbit
The action on the motilin-induced contraction of a specimen of longitudinal muscle in the duodenum extracted from a rabbit was investigated by the following method. A duodenum specimen extracted from a slaughtered rabbit (3×10 mm) was suspended in an organ bath (10 ml) such that the longitudinal muscle would run vertically; the bath was filled with a Krebs solution kept at 28° C. A mixed gas (95% O2 and 5% CO2) was continuously bubbled into the Krebs solution and the contraction of the duodenum specimen was recorded isotonically (with a 1-g load) via an isotonic transducer (TD-111T of Nihon Koden, K.K.) The degree of contraction was expressed in relative values, with the contraction by acetylcholine at a dose of 10^-4 M being taken as 100%. The activity of each compound was calculated as pA2 value indicating its effect on the dose-dependent muscle contraction by the motilin put into the organ bath.

T1 sequence (G1T803 1-400): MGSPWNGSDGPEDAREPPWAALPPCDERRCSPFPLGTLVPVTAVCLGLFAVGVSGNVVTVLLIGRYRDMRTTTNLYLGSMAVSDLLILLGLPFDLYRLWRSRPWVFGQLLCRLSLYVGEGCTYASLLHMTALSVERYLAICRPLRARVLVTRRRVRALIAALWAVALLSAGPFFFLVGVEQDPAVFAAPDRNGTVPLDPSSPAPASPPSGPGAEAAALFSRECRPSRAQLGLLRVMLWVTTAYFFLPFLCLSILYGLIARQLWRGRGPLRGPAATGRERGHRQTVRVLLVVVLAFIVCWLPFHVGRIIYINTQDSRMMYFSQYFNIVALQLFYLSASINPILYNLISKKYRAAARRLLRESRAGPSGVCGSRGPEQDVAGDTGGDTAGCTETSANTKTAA

On to `CC(C)(C)c1cc(CC(NC(=O)C(NC(=O)C(N)Cc2ccccc2)c2ccccc2)C(N)=O)ccc1O` (stereo not drawn) [Example 5, Phe-Phg-Tyr(3-tBu)-NH2] (H-Phe-[Phg]-[Tyr(3-tBu)]-NH2; configuration not given here), for which the pIC50 in test [1] is 7.92. In test [2], the “Contraction suppressing test, pA2” value came to 7.81.
As for `CN(C(=O)C(N)Cc1ccccc1)C(C(=O)NC(Cc1ccc(O)c(C(C)(C)C)c1)C(N)=O)c1ccccc1` [Example 18B, Phe-N-Me-D-Phg-Tyr(3-tBu)-NH2], in test [1], the pIC50 was 8.43. In addition, the “Contraction suppressing test, pA2” value in test [2] is 8.58.
For `CC(Cc1ccc(O)c(C(C)(C)C)c1)NC(=O)C(C(C)C)N(C)C(=O)[C@@H](N)Cc1ccccc1` (some centres unmarked) [Example 118, N-[2-(3-tert-butyl-4-hydroxyphenyl)-1-methylethyl]-3-methyl-2-(N-methyl-N-phenylalanylamino)butanamide], the negative-log IC50 (pIC50) in test [1] was 8.72. In test [2], the “Contraction suppressing test, pA2” value is given as 8.43.
In turn, `CC(C)[C@@H](C(=O)N(C)[C@@H](Cc1ccc(O)c(C(C)(C)C)c1)C(N)=O)N(C)C(=O)[C@@H](N)Cc1ccccc1` [Example 119, Phe-N-Me-Val-N-Me-Tyr(3-tBu)-NH2] (HELM PEPTIDE1{F.[meV].[CN([C@@H](Cc1ccc(O)c(C(C)(C)C)c1)C(=O)[*:2])[*:1]].[am]}$$$$V2.0) had a pIC50 in test [1] of 8.37. Moreover, the “Contraction suppressing test, pA2” value in test [2] came to 8.59.

(Values after patent US6255285A, “Phenethylamine derivatives” (Chugai Seiyaku Kabushiki Kaisha, priority 1997, dated 2001).)
